Source: patent publication US20020028807A1, “Non-nucleoside reverse transcriptase inhibitors” (priority 2000, published 2002)
pEC50, pIC50: −log10 of the molar value.

Experiments:
HIV-1 RT Y188L = target: T1, HIV-1 RT Y188L (Human immunodeficiency virus type 1 group M subtype B, UniProt P03366, Y787L); test: Reverse transcriptase (RT) assay, Y188L mutant; type: biochemical
T1 construct: an HIV RT clone pKRT2 containing only the RT p66 gene regulated by the lac operon/trc promoter; made in house; host or cells: E. coli JM109, vector pKK233-2
Source text: (§1) Among the enzymes for which Human Immunodeficiency Virus (HIV-1) encodes is a reverse transcriptase (1), so-named because it transcribes a DNA copy from an RNA template. This activity can be quantitatively measured in a cell-free enzyme assay and is based upon the observation that reverse transcriptase is able to use a synthetic template poly r(C) primed with a biotinylated oligo d(G) to transcribe a radio-labelled DNA strand utilising 3H-dGTP as a substrate. The assay described below utilises the wild-type enzyme (which is the predominant form of the enzyme observed in patients infected with HIV-1) and can also be used with mutant RT enzymes (for example, Y181C, prepared by site-directed mutagenesis in which the tyrosine residue at codon 181 has been replaced by a cysteine residue) in analogous assay conditions. This assay allows compounds to be evaluated for their effectiveness at inhibiting the mutant enzymes.
(§2) Some HIV-1 IIIB clone BH10 RT mutants were provided by Dr. C.-K. Shih (Boehringer Ingelheim Pharmaceutials Inc., U.S.A.) in the vector pKK233-2 (Pharmacia). Briefly an HIV RT clone pKRT2 containing only the RT p66 gene regulated by the lac operon/trc promoter was obtained from Dr. W. Summers (Yale University) (2). A variety of specific amino acid substitutions were introduced into the wild-type RT gene by site-directed mutagenesis. RT clones were subcloned into the pKK233-2 bacterial expression vector. Clones provided included wild-type, Val106Ala, Tyr181Cys, Tyr188Cys, Tyr188Leu, Gly190Ala and Pro236Leu. Others were made in-house by site-directed mutagenesis of the pKK233-2 RT clones including Lys103Asn, Lys103Asn/Tyr181Cys, Lys103Asn/Leu100Ile, Lys103Asn/Pro225His, and Lys103Asn/Val108Ile.
(§3) Purification of recombinant reverse transcriptase was performed using a combination of methods previously described (3). A single colony from a fresh plate of transformed JM109 cells was used to initiate growth of a pre-culture grown o/n at 37° C. Two liters of growth medium were inoculated with this pre-culture. At OD600˜1.5 (5-6 h at 37° C.), RT gene expression was induced with IPTG (1 mM final), and the fermentation was continued for a few more hours at 37° C. After centrifugation, supernatants were discarded while cell pellets were pooled and stored at −80° C. until purification. Cells were thawed at 4° C. overnight and suspended in lysis buffer (MES 50 mM pH 6, EDTA 1 mM, 10% v/v glyerol, 0.02% w/v OBG, 0.02% w/v sodium azide). Lysozyme was added and the mixture was incubated on ice for 40 minutes. After homogenization using a bounce in presence of lysozyme and sonication, the cells were centrifuged for 30 minutes. Supernatant (S1) was saved and stored at 4° C. The centrifuged pellet was resuspended in extraction buffer (MES 50 mM pH 6, KPO4 50 mM pH 6, KCl 100 mM, 10% v/v glycerol, 0.02% w/v OBG, 0.02% w/v sodium axide) and stirred for 30 minutes at 4° C. This second mixture was centrifuged again and the supernatant (S2) was saved. The above procedure was repeated 2 more times saving supernatants S3 and S4 and one last extraction was performed overnight (S5). Polymin P (0.005% final) was added to the combined supernatants to remove nucleic acids. This solution was stirred for 75 minutes at 4° C. and centrifuged for 1 h. The supernatant (SS1) was precipitated on ice with 20% w/v ammonium sulfate and stirred for 1 h at 4° C. The mixture was then centrifuged and the resulting supernatant (SS2) was precipitated with additional 40% w/v ammonium sulfate (60% total), stirred for 1 h and centrifuged again. The final pellet (P1) was stored overnight at 4° C. before undergoing purification the following day. All steps of the purification were performed at 4° C. unless otherwise stated.
(§4) Pellet (P1) was resuspended into MES 50 mM pH 6, KPO4 10 mM pH 6, KCl 100 mM, 10% v/v glycerol, 0.02% w/v OBG, 0.02% w/v sodium azide. The suspension was dialysis against the same buffer overnight using 12-14 kD MWCO dialysis tubing. […]

HIV-1 RT K103N/Y181C = target: T2, HIV-1 RT K103N/Y181C (Human immunodeficiency virus type 1 group M subtype B, UniProt P03366, K702N/Y780C); test: Reverse transcriptase (RT) assay, K103N/Y181C mutant; type: biochemical
T2 construct: an HIV RT clone pKRT2 containing only the RT p66 gene regulated by the lac operon/trc promoter; made in house; host or cells: E. coli JM109, vector pKK233-2
Source text: as §1, §2, §3, §4

HIV-1 RT wild-type (WT) = target: T3, HIV-1 RT wild-type (WT) (Human immunodeficiency virus type 1 group M subtype B, UniProt P03366); test: Reverse transcriptase (RT) assay, wild-type enzyme; type: biochemical
T3 construct: an HIV RT clone pKRT2 containing only the RT p66 gene regulated by the lac operon/trc promoter; made in house; host or cells: E. coli JM109, vector pKK233-2
Source text: as §1, §2, §3, §4

HIV-1 RT V106A = target: T4, HIV-1 RT V106A (Human immunodeficiency virus type 1 group M subtype B, UniProt P03366, V705A); test: Reverse transcriptase (RT) assay, V106A mutant; type: biochemical
T4 construct: an HIV RT clone pKRT2 containing only the RT p66 gene regulated by the lac operon/trc promoter; made in house; host or cells: E. coli JM109, vector pKK233-2
Source text: as §1, §2, §3, §4

[1] = tested on: HIV coding for wild-type reverse transcriptase (WT RT); test: ELISA (p24) assay of HIV replication in C8166 cell culture, wild-type RT virus; type: cell-based, HIV-1; conditions: Human immunodeficiency virus 1, C8166, 72 h, read-out: EC50 WT RT
Procedure: Compounds of the invention were tested for their ability to inhibit HIV replication in cell culture in a 96-well plate assay. Complete RPMI 1640, consisting of RPMI 1640+10% fetal bovine serum, 10 μg/ml gentamycin and 10 μM β-mercaptoethanol was used for dilution of the compound as well as cell growth medium. The T lymphocyte cell line C8166 was infected at a multiplicity of infection of 0.001 with viruses coding for wild-type and mutant reverse transcriptase. Cells were then incubated for three days in the presence of serial dilutions of the compounds of the invention. The supernatant was pooled from eight replica wells and the concentration of extracellular p24 was determined using a commercially available HIV-1 p24 antigen assay kit (Beckman-Coulter®). The level of inhibition (% inhibition) was calculated with the following equation: [formula]

HIV-1 RT K103N/P225H = target: T5, HIV-1 RT K103N/P225H (Human immunodeficiency virus type 1 group M subtype B, UniProt P03366, K702N/P824H); test: Reverse transcriptase (RT) assay, K103N/P225H mutant; type: biochemical
T5 construct: an HIV RT clone pKRT2 containing only the RT p66 gene regulated by the lac operon/trc promoter; made in house; host or cells: E. coli JM109, vector pKK233-2
Source text: as §1, §2, §3, §4

HIV-1 RT Y181C = target: T6, HIV-1 RT Y181C (Human immunodeficiency virus type 1 group M subtype B, UniProt P03366, Y780C); test: Reverse transcriptase (RT) assay, Y181C mutant; type: biochemical
T6 construct: an HIV RT clone pKRT2 containing only the RT p66 gene regulated by the lac operon/trc promoter; made in house; host or cells: E. coli JM109, vector pKK233-2
Source text: as §1, §2, §3, §4

HIV-1 RT K103N/V108I = target: T7, HIV-1 RT K103N/V108I (Human immunodeficiency virus type 1 group M subtype B, UniProt P03366, K702N/V707I); test: Reverse transcriptase (RT) assay, K103N/V108I mutant; type: biochemical
T7 construct: an HIV RT clone pKRT2 containing only the RT p66 gene regulated by the lac operon/trc promoter; made in house; host or cells: E. coli JM109, vector pKK233-2
Source text: as §1, §2, §3, §4

HIV-1 RT K103N/L100I = target: T8, HIV-1 RT K103N/L100I (Human immunodeficiency virus type 1 group M subtype B, UniProt P03366, K702N/L699I); test: Reverse transcriptase (RT) assay, K103N/L100I mutant; type: biochemical
T8 construct: an HIV RT clone pKRT2 containing only the RT p66 gene regulated by the lac operon/trc promoter; made in house; host or cells: E. coli JM109, vector pKK233-2
Source text: as §1, §2, §3, §4

HIV-1 RT K103N = target: T9, HIV-1 RT K103N (Human immunodeficiency virus type 1 group M subtype B, UniProt P03366, K702N); test: Reverse transcriptase (RT) assay, K103N mutant; type: biochemical
T9 construct: an HIV RT clone pKRT2 containing only the RT p66 gene regulated by the lac operon/trc promoter; made in house; host or cells: E. coli JM109, vector pKK233-2
Source text: as §1, §2, §3, §4

Row | SMILES | pIC50 (HIV-1 RT Y188L) | pIC50 (HIV-1 RT K103N/Y181C) | pIC50 (HIV-1 RT wild-type (WT)) | pIC50 (HIV-1 RT V106A) | pEC50 [1] | pIC50 (HIV-1 RT K103N/P225H) | pIC50 (HIV-1 RT Y181C) | pIC50 (HIV-1 RT K103N/V108I) | pIC50 (HIV-1 RT K103N/L100I) | pIC50 (HIV-1 RT K103N)
1 | CCN1c2nc(Cl)ccc2NC(=O)c2cc(CCOc3cc[n+]([O-])c4ccccc34)cnc21 [compound 22, 2-Chloro-5,11-dihydro-11-ethyl-8-{2-{(1-oxido-4-quinolinyl)-oxy}ethyl}-6H-dipyrido[3,2-b:2′,3′-e][1,4]diazepin-6-one] | 5.52 | 6.47 | 7.35 | 5.60 |  |  |  |  |  | 
2 | CCN1c2ncc(CCOc3cc[n+]([O-])c4ccccc34)cc2C(=O)Nc2c(C)cc(Cl)nc21 [compound 14, 2-Chloro-5,11-dihydro-11-ethyl-4-methyl-8-{2-{(1-oxido-4-quinolinyl)-oxy}ethyl}-6H-dipyrido[3,2-b:2′,3′-e][1,4]diazepin-6-one] | 5.64 | 7.21 | 7.82 | 7.11 | 9.17 | 7.52 | 7.55 | 7.23 | 7.62 | 7.72
3 | CCN1c2ncc(CCOc3ccnc4ccccc34)cc2C(=O)Nc2c(C)cc(Cl)nc21 [compound 1, 2-Chloro-5,11-dihydro-11-ethyl-4-methyl-8-{2-(4-quinolinyloxy)ethyl}-6H-dipyrido[3,2-b:2′,3′-e][1,4]diazepin-6-one] | 5.56 | 7.28 | 7.98 | 6.88 | 8.59 | 7.51 | 7.70 | 7.54 | 7.55 | 7.72
4 | CCN1c2ncc(CCOc3cccc4ncccc34)cc2C(=O)Nc2c(C)cc(Cl)nc21 [compound 25, 2-Chloro-5,11-dihydro-11-ethyl-4-methyl-8-{2-(5-quinolinyloxy)ethyl}-6H-dipyrido[3,2-b:2′,3′-e][1,4]diazepin-6-one] | 5.60 | 7.19 | 8.10 | 7.08 | 8.66 | 7.64 | 7.77 | 7.42 | 7.55 | 7.72
5 | Cc1ccnc2c1NC(=O)c1cc(CCOc3ccnc4ccccc34)cnc1N2C1CC1 [compound 3, 11-(Cyclopropyl)-5,11-dihydro-4-methyl-8-{2-(4-quinolinyloxy)ethyl}-6H-dipyrido[3,2-b:2′,3′-e][1,4]diazepin-6-one] | 5.49 | 6.21 | 7.78 | 7.10 | 8.89 | 7.25 | 7.14 | 7.33 | 6.91 | 7.35
6 | CCN1c2ncc(CCOc3cccc4c3ccc[n+]4[O-])cc2C(=O)Nc2c(C)cc(F)nc21 [compound 23, 5,11-Dihydro-11-ethyl-2-fluoro-4-methyl-8-{2-{(1-oxido-5-quinolinyl)-oxy}ethyl}-6H-dipyrido[3,2-b:2′,3′-e][1,4]diazepin-6-one] | 5.25 | 6.61 | 8.21 | 6.98 |  |  |  |  |  | 
7 | CN1C(=O)c2cc(CCOc3ccnc4ccccc34)cnc2N(C2CC2)c2nc(Cl)ccc21 [compound 6, 2-Chloro-11-cyclopropyl-5,11-dihydro-5-methyl-8-{2-(4-quinolinyloxy)-ethyl}-6H-dipyrido[3,2-b:2′,3′-e][1,4]diazepin-6-one] |  |  | 7.60 |  |  |  |  |  |  | 
8 | CCN1C(=O)c2cc(CCOc3cc[n+]([O-])c4ccccc34)cnc2N(CC)c2ncccc21 [compound 27, 5,11-Dihydro-5,11-diethyl-8-{2-{(1-oxido-4-quinolinyl)oxy}ethyl}-6H-dipyrido[3,2-b:2′,3′-e][1,4]diazepin-6-one] | 5.27 | 6.52 | 7.42 | 5.64 |  |  |  |  |  | 
9 | CN1C(=O)c2cc(CCOc3cc[n+]([O-])c4ccccc34)cnc2N(C2CC2)c2nc(Cl)ccc21 [compound 10, 2-Chloro-11-cyclopropyl-5,11-dihydro-5-methyl-8-{2-{(1-oxido-4-quinolinyl)oxy}ethyl}-6H-dipyrido[3,2-b:2′,3′-e][1,4]diazepin-6-one] | 5.85 | 6.15 | 7.39 | 5.86 |  |  | 6.69 | 6.59 | 6.64 | 7.17
10 | Cc1ccnc2c1NC(=O)c1cc(CCOc3cc[n+]([O-])c4ccccc34)cnc1N2C1CC1 [compound 15] | < 5.00 | 5.82 | 7.21 | 6.69 |  | 7.03 | 6.65 | 6.67 | 6.57 | 7.18
